# Test results reported in PubChem BioAssay AID2060600 (Molecular Pharmacology Branch, DTP, NCI, 2025).
# Test system: 996289-038-R-J1-PDC complex spheroid viability
# Experiment: Anticancer human tumor 996289-038-R-J1-PDC patient-derived colon adenocarcinoma cell line growth inhibition [CLK]
# Conditions: for IC50: curve of first compound; for viability, T/C: stronger effect = lower value
# Outline: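 Patient-derived tumor cells grown as complex spheroids with HUVEC endothelial cells and mesenchymal stem cells, treated with drug combinations. Concentrations descend in half-log steps from near clinical Cmax, or from 10 microM if Cmax unknown.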
# 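Also: spheroids exposed to the agents for 7 days before readout.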
structure (smiles),measurement,setting,value
NC(=O)C(=Cn1cnc(-c2cc(C(F)(F)F)cc(C(F)(F)F)c2)n1)c1cncnc1 + CNC(=O)c1ccc(Nc2nc(OC3CCCC3)c3c(-c4ccc5nc(C)oc5c4)c[nH]c3n2)c(OC)c1,IC50,second compound 0.0316 µM,101 nM
same,IC50,second compound 0.1 µM,77 nM
same,IC50,second compound 0.316 µM,40.5 nM
same,IC50,second compound 1 µM,13 nM
same,IC50,second compound 3.16 µM,< 9.49 nM
same,IC50,second compound 10 µM,< 9.49 nM
same,"viability, T/C","second compound 0.0316 µM, first compound 0.00949 µM",98.9%
same,"viability, T/C","second compound 0.0316 µM, first compound 0.03 µM",79.4%
same,"viability, T/C","second compound 0.0316 µM, first compound 0.0949 µM",50.9%
same,"viability, T/C","second compound 0.0316 µM, first compound 0.3 µM",31.2%
same,"viability, T/C","second compound 0.0316 µM, first compound 0.949 µM",20%
same,"viability, T/C","second compound 0.0316 µM, first compound 3 µM",19.5%
same,"viability, T/C","second compound 0.1 µM, first compound 0.00949 µM",93.8%
same,"viability, T/C","second compound 0.1 µM, first compound 0.03 µM",71.5%
same,"viability, T/C","second compound 0.1 µM, first compound 0.0949 µM",45.8%
same,"viability, T/C","second compound 0.1 µM, first compound 0.3 µM",27.6%
same,"viability, T/C","second compound 0.1 µM, first compound 0.949 µM",17.7%
same,"viability, T/C","second compound 0.1 µM, first compound 3 µM",19%
same,"viability, T/C","second compound 0.316 µM, first compound 0.00949 µM",68.9%
same,"viability, T/C","second compound 0.316 µM, first compound 0.03 µM",55.2%
same,"viability, T/C","second compound 0.316 µM, first compound 0.0949 µM",33.8%
same,"viability, T/C","second compound 0.316 µM, first compound 0.3 µM",15%
same,"viability, T/C","second compound 0.316 µM, first compound 0.949 µM",13.4%
same,"viability, T/C","second compound 0.316 µM, first compound 3 µM",13.8%
same,"viability, T/C","second compound 1 µM, first compound 0.00949 µM",53.7%
same,"viability, T/C","second compound 1 µM, first compound 0.03 µM",40.1%
same,"viability, T/C","second compound 1 µM, first compound 0.0949 µM",19.5%
same,"viability, T/C","second compound 1 µM, first compound 0.3 µM",8.6%
same,"viability, T/C","second compound 1 µM, first compound 0.949 µM",8.98%
same,"viability, T/C","second compound 1 µM, first compound 3 µM",8.12%
same,"viability, T/C","second compound 3.16 µM, first compound 0.00949 µM",47.8%
same,"viability, T/C","second compound 3.16 µM, first compound 0.03 µM",35.6%
same,"viability, T/C","second compound 3.16 µM, first compound 0.0949 µM",15.5%
same,"viability, T/C","second compound 3.16 µM, first compound 0.3 µM",7.76%
same,"viability, T/C","second compound 3.16 µM, first compound 0.949 µM",6.08%
same,"viability, T/C","second compound 3.16 µM, first compound 3 µM",5.36%
same,"viability, T/C","second compound 10 µM, first compound 0.00949 µM",44.5%
same,"viability, T/C","second compound 10 µM, first compound 0.03 µM",33.8%
same,"viability, T/C","second compound 10 µM, first compound 0.0949 µM",12.8%
same,"viability, T/C","second compound 10 µM, first compound 0.3 µM",8.08%
same,"viability, T/C","second compound 10 µM, first compound 0.949 µM",5.49%
same,"viability, T/C","second compound 10 µM, first compound 3 µM",4.93%
